Values of other authors as cited in US20080269177A1, “PESTICIDAL COMPOSITIONS” (ECOSMART TECHNOLOGIES, INC., priority 2007, published 2008).

Columns and labels:
[1] = even at the lowest doses, 30 mg/kg/day
[2] = even treatments as low as 1.2%

For `CCCCOCCOCCOCc1cc2c(cc1CCC)OCO2` [PBO, piperonyl butoxide], the “liver weights in chronic toxicity studies” value [1] is listed as “increased liver weights” and the “tumour finding in animal studies” value [2] is listed as “hepatocellular carcinomas”.
